The record followed here is patent US20250353842A1, “BICYCLIC AMINE CDK12 INHIBITORS” (Incyte Corporation, priority 2022, published 2025).

Sequence of CDK12 complexed with Cyclin K (Q9NYV4 whole entry): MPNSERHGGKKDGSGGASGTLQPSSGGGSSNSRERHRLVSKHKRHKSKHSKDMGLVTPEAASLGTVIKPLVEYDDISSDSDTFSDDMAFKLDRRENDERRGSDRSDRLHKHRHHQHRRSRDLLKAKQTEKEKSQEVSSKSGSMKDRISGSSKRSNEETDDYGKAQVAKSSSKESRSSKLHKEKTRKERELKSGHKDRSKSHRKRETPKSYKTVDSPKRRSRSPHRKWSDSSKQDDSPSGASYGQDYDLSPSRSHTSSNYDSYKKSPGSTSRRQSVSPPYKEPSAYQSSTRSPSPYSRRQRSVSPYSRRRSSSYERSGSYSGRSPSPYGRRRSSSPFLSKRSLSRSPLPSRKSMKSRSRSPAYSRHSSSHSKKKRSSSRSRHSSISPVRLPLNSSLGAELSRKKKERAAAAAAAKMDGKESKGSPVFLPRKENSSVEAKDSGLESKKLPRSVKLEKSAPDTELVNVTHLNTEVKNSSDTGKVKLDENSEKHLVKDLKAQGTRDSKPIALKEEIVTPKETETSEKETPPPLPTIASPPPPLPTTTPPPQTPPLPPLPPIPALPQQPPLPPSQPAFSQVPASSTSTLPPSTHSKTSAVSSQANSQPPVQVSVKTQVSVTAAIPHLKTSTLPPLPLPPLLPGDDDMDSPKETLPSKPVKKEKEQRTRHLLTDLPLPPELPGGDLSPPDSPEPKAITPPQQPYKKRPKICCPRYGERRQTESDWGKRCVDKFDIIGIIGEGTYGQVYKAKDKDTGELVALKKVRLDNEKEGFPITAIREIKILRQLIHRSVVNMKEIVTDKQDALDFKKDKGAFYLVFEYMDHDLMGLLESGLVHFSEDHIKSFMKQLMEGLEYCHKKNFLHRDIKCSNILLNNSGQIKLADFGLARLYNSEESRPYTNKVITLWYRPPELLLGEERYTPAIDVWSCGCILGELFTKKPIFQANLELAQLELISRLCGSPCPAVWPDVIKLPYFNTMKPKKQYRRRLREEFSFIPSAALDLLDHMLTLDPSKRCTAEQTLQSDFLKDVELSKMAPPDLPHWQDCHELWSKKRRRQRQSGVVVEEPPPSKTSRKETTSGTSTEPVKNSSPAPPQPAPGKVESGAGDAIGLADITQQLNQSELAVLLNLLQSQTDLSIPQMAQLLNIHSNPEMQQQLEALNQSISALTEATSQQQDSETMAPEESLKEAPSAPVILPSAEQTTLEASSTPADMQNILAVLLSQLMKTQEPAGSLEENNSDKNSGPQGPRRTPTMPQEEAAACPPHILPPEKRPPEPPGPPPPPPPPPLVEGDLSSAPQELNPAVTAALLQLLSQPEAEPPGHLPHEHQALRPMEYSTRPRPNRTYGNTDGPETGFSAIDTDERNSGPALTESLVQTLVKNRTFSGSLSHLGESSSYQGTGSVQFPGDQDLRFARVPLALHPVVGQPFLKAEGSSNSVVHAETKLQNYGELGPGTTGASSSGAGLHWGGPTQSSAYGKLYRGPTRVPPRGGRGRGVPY
Sequence of CDK12 complexed with Cyclin K (O75909 whole entry partner): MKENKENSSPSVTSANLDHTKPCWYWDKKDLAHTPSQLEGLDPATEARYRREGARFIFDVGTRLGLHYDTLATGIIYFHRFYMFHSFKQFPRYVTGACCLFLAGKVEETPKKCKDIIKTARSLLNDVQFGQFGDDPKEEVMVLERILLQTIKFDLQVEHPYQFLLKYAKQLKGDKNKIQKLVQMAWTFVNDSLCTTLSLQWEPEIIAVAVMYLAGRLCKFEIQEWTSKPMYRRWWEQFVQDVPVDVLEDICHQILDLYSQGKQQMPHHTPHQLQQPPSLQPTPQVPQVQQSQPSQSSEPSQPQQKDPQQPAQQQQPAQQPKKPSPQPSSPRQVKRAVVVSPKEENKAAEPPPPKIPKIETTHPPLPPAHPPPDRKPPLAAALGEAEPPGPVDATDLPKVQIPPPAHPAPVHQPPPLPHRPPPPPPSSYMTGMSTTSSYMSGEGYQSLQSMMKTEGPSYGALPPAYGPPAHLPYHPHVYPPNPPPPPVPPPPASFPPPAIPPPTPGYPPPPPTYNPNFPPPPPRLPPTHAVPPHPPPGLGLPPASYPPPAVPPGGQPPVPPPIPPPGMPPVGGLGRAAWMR

This test addresses CDK12 complexed with Cyclin K (Homo sapiens (Human), UniProt Q9NYV4). Nature of the test: CDK enzymatic assay (HTRF, LANCE Ultra kinase assay). Type of test: biochemical. The following applies: 60 minutes pre-incubation, 1 mM ATP. The procedure: The following activity of the CDK enzymes in complex with their respective cyclins we assayed: CDK1 complexed with Cyclin B1; CDK2 complexed with Cyclin E1; CDK4 complexed with Cyclin D1; CDK6 complexed with Cyclin D1; CDK6 complexed with Cyclin D3; CDK9 complexed with Cyclin T1; CDK7 complexed with Cyclin H/MAT1; CDK2 complexed with Cyclin A2; CDK5 complexed with p35; CDK12 complexed with Cyclin K; CDK13 complexed with Cyclin K. These in vitro enzyme activity are assayed using homogeneous time-resolved energy transfer (HTRF), which measures phosphorylation of a peptide substrate. The LANCE® Ultra kinase assay (PerkinElmer) uses a ULight™-labeled EIF4E-binding protein 1 (THR37/46) peptide (DYSTTPGGTLFSTTPGTRI) (SEQ ID NO: 1) substrate and a Europium-labeled anti-phospho-4E-BP1 antibody (CDK2, CDK1, CDK4, CDK6, CDK9, CDK12, CDK13) or ULight™-labeled Myelin Basic Protein peptide (VTPRTPPP) (SEQ ID NO: 2) substrate and a Europium-labeled anti-phospho-MBP antibody (CDK7). Each CDK enzyme activity assays utilized human CDK co-expressed as N-terminal GST-tagged protein with its full length cyclin partner using a baculovirus expression system.
Enzyme was pre-incubated with compounds for 30 minutes (CDK1,2,4,6,9) or 60 minutes (CDK7, CDK12, CDK13) prior to addition of ATP and Ulight-peptide (1 mM and 50 nM final, respectively), in assay buffer containing 50 mM HEPES pH 7.5, 1 mM EGTA, 10 mM MgCl2, 2 mM DTT, 0.05 mg/mL BSA, and 0.01% Tween 20.
The reaction was then incubated for 60-90 minutes at room temperature. The reactions were stopped by the addition of EDTA and Europium labeled antibody, for a final concentration of 15 mM and 1.0-1.5 nM, respectively. HTRF signals were read after 15-120 minutes. A ratio of fluorescence transferred to the labeled substrate (665 nm) relative to fluorescence of the Europium donor (620 nm) represents the extent of phosphorylation. Ratios for treated wells were normalized to DMSO only (100% activity) and no enzyme (0% activity) controls. Normalized data was analyzed using a three or four parameter dose response curve to determine IC50 for each compound and are shown in Table A. Control reference inhibitors were included on each plate.
`N#Cc1cnc(N[C@@H]2CCC[C@H](n3cnc4cccnc43)C2)nc1-c1cnn2c1OCCC2` [Example 25, 2-(((1R,3S)-3-(3H-Imidazo[4,5-b]pyridin-3-yl)cyclohexyl)amino)-4-(6,7-dihydro-5H-pyrazolo[5,1-b][1,3]oxazin-3-yl)pyrimidine-5-carbonitrile] came in with an IC50 of 50 to 500 nM.

Take `Cn1ncc(-c2nc(N[C@@H]3CCC[C@H](n4cnc5cccnc54)C3)ncc2C#N)c1CO` [Example 26, 2-(((1R,3S)-3-(3H-Imidazo[4,5-b]pyridin-3-yl)cyclohexyl)amino)-4-(5-(hydroxymethyl)-1-methyl-1H-pyrazol-4-yl)pyrimidine-5-carbonitrile]: the IC50 fell in the range of 50 to 500 nM.

Consider `CC(C)n1cnc(-c2nc(N[C@@H]3CCC[C@H](n4cnc5cccnc54)C3)ncc2C#N)c1` [Example 27, 2-(((1R,3S)-3-(3H-Imidazo[4,5-b]pyridin-3-yl)cyclohexyl)amino)-4-(1-isopropyl-1H-imidazol-4-yl)pyrimidine-5-carbonitrile], for which the IC50 was less than 50 nM.

Take `Cc1cnc(-c2nc(N[C@@H]3CCC[C@H](n4cnc5cc(C#N)cnc54)C3)ncc2C#N)n1C` [Example 29, 3-((1S,3R)-3-((5-Cyano-4-(1,5-dimethyl-1H-imidazol-2-yl)pyrimidin-2-yl)amino)cyclohexyl)-3H-imidazo[4,5-b]pyridine-6-carbonitrile]: the IC50 lay within 50 to 500 nM.

Consider `Cc1c(Nc2nc(N[C@@H]3CCC[C@H](n4cnc5cc(C#N)cnc54)C3)ncc2C#N)cnn1C` [Example 30, 3-((1S,3R)-3-((5-Cyano-4-((1,5-dimethyl-1H-pyrazol-4-yl)amino)pyrimidin-2-yl)amino)cyclohexyl)-3H-imidazo[4,5-b]pyridine-6-carbonitrile], for which the IC50 fell in the range of 50 to 500 nM.

As for `N#Cc1cnc(N[C@@H]2CCC[C@H](n3cnc4cncc(C#N)c43)C2)nc1-c1cnn(CC(F)F)c1` [Example 31, 1-((1S,3R)-3-((5-Cyano-4-(1-(2,2-difluoroethyl)-1H-pyrazol-4-yl)pyrimidin-2-yl)amino)cyclohexyl)-1H-imidazo[4,5-c]pyridine-7-carbonitrile], the IC50 is less than 50 nM.

`N#Cc1cnc(N[C@@H]2CCC[C@H](n3cnc4cncc(C#N)c43)C2)nc1-c1cnn(CCO)c1` [Example 32, 1-((1S,3R)-3-((5-Cyano-4-(1-(2-hydroxyethyl)-1H-pyrazol-4-yl)pyrimidin-2-yl)amino)cyclohexyl)-1H-imidazo[4,5-c]pyridine-7-carbonitrile] returned an IC50 of less than 50 nM.

In turn, `CC(C)n1cc(-c2nc(N[C@@H]3CCC[C@H](n4cnc5cncc(C#N)c54)C3)ncc2C#N)cn1` [Example 33, 1-((1S,3R)-3-((5-Cyano-4-(1-isopropyl-1H-pyrazol-4-yl)pyrimidin-2-yl)amino)cyclohexyl)-1H-imidazo[4,5-c]pyridine-7-carbonitrile] came in with an IC50 of less than 50 nM.

Consider `N#Cc1cnc(N[C@@H]2CCC[C@H](n3cnc4cncc(C#N)c43)C2)nc1-c1cnn(C2CC2)c1` [Example 34, 1-((1S,3R)-3-((5-Cyano-4-(1-cyclopropyl-1H-pyrazol-4-yl)pyrimidin-2-yl)amino)cyclohexyl)-1H-imidazo[4,5-c]pyridine-7-carbonitrile], for which the IC50 was less than 50 nM.

Regarding `N#Cc1cnc2c(c1)ncn2[C@@H]1CCC[C@H](Nc2ncc(C#N)c(-c3cnn(CC(F)F)c3)n2)C1` [Example 35, 3-((1R,3S)-3-((5-Cyano-4-(1-(2,2-difluoroethyl)-1H-pyrazol-4-yl)pyrimidin-2-yl)amino)cyclohexyl)-3H-imidazo[4,5-b]pyridine-6-carbonitrile], the IC50 is greater than 500 nM.

For `N#Cc1cnc(N[C@@H]2CCC[C@H](n3cnc4cc(F)cc(Cl)c43)C2)nc1-c1cnn(CC(F)F)c1` [Example 36, 2-(((1R,3S)-3-(7-Chloro-5-fluoro-1H-benzo[d]imidazol-1-yl)cyclohexyl)amino)-4-(1-(2,2-difluoroethyl)-1H-pyrazol-4-yl)pyrimidine-5-carbonitrile], the IC50 was less than 50 nM.

For the molecule `N#Cc1cnc2c(c1)ncn2[C@H]1CCC[C@@H](Nc2ncc(C#N)c(-c3cnn(C4CCC4)c3)n2)C1` [Example 38, 3-((1S,3R)-3-((5-Cyano-4-(1-cyclobutyl-1H-pyrazol-4-yl)pyrimidin-2-yl)amino)cyclohexyl)-3H-imidazo[4,5-b]pyridine-6-carbonitrile], the IC50 was less than 50 nM.

In turn, `N#Cc1cnc(N[C@@H]2CCC[C@H](n3cnc4cncc(Br)c43)C2)nc1-c1cnn(CC(F)F)c1` [Example 39, 2-(((1R,3S)-3-(7-Bromo-1H-imidazo[4,5-c]pyridin-1-yl)cyclohexyl)amino)-4-(1-(2,2-difluoroethyl)-1H-pyrazol-4-yl)pyrimidine-5-carbonitrile] came in with an IC50 of less than 50 nM.

Take `N#Cc1cnc(N[C@@H]2CCC[C@H](n3cnc4cc(F)cc(Br)c43)C2)nc1-c1cnn(CC(F)F)c1` [Example 40, 2-(((1R,3S)-3-(7-Bromo-5-fluoro-1H-benzo[d]imidazol-1-yl)cyclohexyl)amino)-4-(1-(2,2-difluoroethyl)-1H-pyrazol-4-yl)pyrimidine-5-carbonitrile]: the IC50 was less than 50 nM.

`N#Cc1cnc(N[C@@H]2CCC[C@H](n3cnc4cccc(Br)c43)C2)nc1-c1cnn(CC(F)F)c1` [Example 41, 2-(((1R,3S)-3-(7-Bromo-1H-benzo[d]imidazol-1-yl)cyclohexyl)amino)-4-(1-(2,2-difluoroethyl)-1H-pyrazol-4-yl)pyrimidine-5-carbonitrile]: the IC50 was less than 50 nM.

`N#Cc1cnc(N[C@@H]2CCC[C@H](n3cnc4cnc(Cl)c(Br)c43)C2)nc1-c1cnn(CC(F)F)c1` [Example 42, 2-(((1R,3S)-3-(7-Bromo-6-chloro-1H-imidazo[4,5-c]pyridin-1-yl)cyclohexyl)amino)-4-(1-(2,2-difluoroethyl)-1H-pyrazol-4-yl)pyrimidine-5-carbonitrile] registered an IC50 of less than 50 nM.

The molecule `N#Cc1ccc2ncn([C@H]3CCC[C@@H](Nc4ncc(C#N)c(-c5cnn(CC(F)F)c5)n4)C3)c2c1` [Example 43, 1-((1S,3R)-3-((5-Cyano-4-(1-(2,2-difluoroethyl)-1H-pyrazol-4-yl)pyrimidin-2-yl)amino)cyclohexyl)-1H-benzo[d]imidazole-6-carbonitrile] came in with an IC50 of less than 50 nM.

As to `N#Cc1cnc(N[C@@H]2CCC[C@H](n3cnc4cncc(Cl)c43)C2)nc1-c1cnn(CC(F)F)c1` [Example 45, 2-(((1R,3S)-3-(7-Chloro-1H-imidazo[4,5-c]pyridin-1-yl)cyclohexyl)amino)-4-(1-(2,2-difluoroethyl)-1H-pyrazol-4-yl)pyrimidine-5-carbonitrile], the IC50 was less than 50 nM.

Molecule `N#Cc1cc2c(cn1)ncn2[C@H]1CCC[C@@H](Nc2ncc(C#N)c(-c3cnn(CC(F)F)c3)n2)C1` [Example 46, 1-((1S,3R)-3-((5-Cyano-4-(1-(2,2-difluoroethyl)-1H-pyrazol-4-yl)pyrimidin-2-yl)amino)cyclohexyl)-1H-imidazo[4,5-c]pyridine-6-carbonitrile] registered an IC50 of less than 50 nM.

`N#Cc1ccc2ncn([C@H]3CCC[C@@H](Nc4ncc(C#N)c(-c5cnn(CC(F)F)c5)n4)C3)c2n1` [Example 47, 3-((1S,3R)-3-((5-Cyano-4-(1-(2,2-difluoroethyl)-1H-pyrazol-4-yl)pyrimidin-2-yl)amino)cyclohexyl)-3H-imidazo[4,5-b]pyridine-5-carbonitrile] gave an IC50 of less than 50 nM.

`Cc1ncc(C#N)c2c1ncn2[C@H]1CCC[C@@H](Nc2ncc(C#N)c(-c3cnn(CC(F)F)c3)n2)C1` [Example 48, 1-((1S,3R)-3-((5-Cyano-4-(1-(2,2-difluoroethyl)-1H-pyrazol-4-yl)pyrimidin-2-yl)amino)cyclohexyl)-4-methyl-1H-imidazo[4,5-c]pyridine-7-carbonitrile] showed an IC50 of less than 50 nM.

On to `N#Cc1cnc(N[C@@H]2CCC[C@H](n3cnc4cc(F)cc(C#N)c43)C2)nc1-c1cnn(CC(F)F)c1` [Example 49, 1-((1S,3R)-3-((5-Cyano-4-(1-(2,2-difluoroethyl)-1H-pyrazol-4-yl)pyrimidin-2-yl)amino)cyclohexyl)-5-fluoro-1H-benzo[d]imidazole-7-carbonitrile], for which the IC50 is less than 50 nM.

`N#Cc1cc(C#N)c2c(c1)ncn2[C@H]1CCC[C@@H](Nc2ncc(C#N)c(-c3cnn(CC(F)F)c3)n2)C1` [Example 50, 1-((1S,3R)-3-((5-Cyano-4-(1-(2,2-difluoroethyl)-1H-pyrazol-4-yl)pyrimidin-2-yl)amino)cyclohexyl)-1H-benzo[d]imidazole-5,7-dicarbonitrile] registered an IC50 of less than 50 nM.
